Tests used:
Type in all cases: in vivo
[1] = system: windgrass (Apera spica-venti); assay: Test B postemergence plant response; conditions: for Plant response rating, Windgrass: Postemergence
Method in brief: (§1)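 Compounds applied after emergence to 2–18 cm plants; response read visually 13–15 days later on 0 (none) to 100 (complete control); a dash marks no result.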

[2] = system: winter barley (Hordeum vulgare); assay: Test B postemergence plant response; conditions: for Plant response rating, Barley: Postemergence
Method in brief: as §1

[3] = system: canarygrass (Phalaris minor); assay: Test B postemergence plant response; conditions: for Plant response rating, Canarygrass: Postemergence
Method in brief: as §1

[4] = system: Italian ryegrass (Lolium multiflorum); assay: Test C pre-/postemergence plant response
Method in brief: (§2)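 Both preemergence (to planted seed) and postemergence (to plants 2–18 cm high, 1- to 4-leaf) applications used test chemicals in a non-phytotoxic solvent mixture containing surfactant. Evaluation: visual comparison with controls after 15 to 25 days; 0 means no effect, 100 complete control.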

[5] = system: spring wheat (Triticum aestivum); assay: Test C pre-/postemergence plant response
Method in brief: as §2

[6] = system: windgrass (Apera spica-venti); assay: Test C pre-/postemergence plant response
Method in brief: as §2

[7] = system: green foxtail (Setaria viridis); assay: Test C pre-/postemergence plant response
Method in brief: as §2

[8] = system: winter barley (Hordeum vulgare); assay: Test C pre-/postemergence plant response
Method in brief: as §2

[9] = system: wild mustard (Sinapis arvensis); assay: Test C pre-/postemergence plant response
Method in brief: as §2

[10] = system: annual bluegrass (Poa annua); assay: Test C pre-/postemergence plant response
Method in brief: as §2

[11] = system: winter wheat (Triticum aestivum); assay: Test C pre-/postemergence plant response
Method in brief: as §2

[12] = system: blackgrass (Alopecurus myosuroides); assay: Test C pre-/postemergence plant response
Method in brief: as §2

[13] = system: canarygrass (Phalaris minor); assay: Test C pre-/postemergence plant response; conditions: Preemergence
Method in brief: as §2

[14] = system: downy bromegrass (Bromus tectorum); assay: Test C pre-/postemergence plant response
Method in brief: as §2

[15] = system: pigweed (Amaranthus retroflexus); assay: Test C pre-/postemergence plant response
Method in brief: as §2

wild oat (Avena fatua) = assay: Test C pre-/postemergence plant response
Method in brief: as §2

[16] = system: spring barley (Hordeum vulgare); assay: Test C pre-/postemergence plant response
Method in brief: as §2

[17] = 8 g ai/ha, postemergence, 0-100 scale
[18] = 31 g ai/ha, scale 0 to 100, 0 no effect, 100 complete control
[19] = Postemergence, 8 g ai/ha, scale 0 to 100, 0 no effect, 100 complete control
[20] = Postemergence, 16 g ai/ha, scale 0 to 100, 0 no effect, 100 complete control
[21] = Postemergence, 31 g ai/ha, scale 0 to 100, 0 no effect, 100 complete control
[22] = Postemergence, 62 g ai/ha, scale 0 to 100, 0 no effect, 100 complete control
[23] = Preemergence, 8 g ai/ha, scale 0 to 100 (0 no effect, 100 complete control)
[24] = Preemergence, 16 g ai/ha, scale 0 to 100 (0 no effect, 100 complete control)
[25] = Preemergence, 31 g ai/ha, scale 0 to 100 (0 no effect, 100 complete control)
[26] = Preemergence, 62 g ai/ha, scale 0 to 100, 0 no effect, 100 complete control

CCc1cc(-c2ccc(C(F)(F)F)cc2)nn1-c1c(OS(C)(=O)=O)cnn(C)c1=O [Compound 19]
Windgrass plant response rating [1, 17]: 90
Plant response rating, Windgrass ([1]; 16 g ai/ha, scale 0 to 100): 95
Plant response rating, Windgrass [1, 18]: 100
Plant response rating, Windgrass ([1]; 62 g ai/ha, scale 0 to 100): 100
Barley plant response rating [2, 17]: 0
Plant response rating, Barley ([2]; 16 g ai/ha, scale 0 to 100, 0 no effect, 100 complete control): 5
Plant response rating, Barley [2, 18]: 5
Plant response rating, Barley ([2]; 62 g ai/ha, scale 0 to 100): 90
Canarygrass plant response rating [3, 17]: 0
Plant response rating, Canarygrass ([3]; 16 g ai/ha, scale 0 to 100): 20
Plant response rating, Canarygrass [3, 18]: 20
Plant response rating, Canarygrass ([3]; 62 g ai/ha, scale 0 to 100): 100
Plant response rating, Ryegrass, Italian [4, 19]: 60
Plant response rating, Ryegrass, Italian [4, 20]: 100
Plant response rating, Ryegrass, Italian [4, 21]: 100
Plant response rating, Ryegrass, Italian [4, 22]: 100
Plant response rating, Ryegrass, Italian [4, 23]: 80
Plant response rating, Ryegrass, Italian [4, 24]: 100
Plant response rating, Ryegrass, Italian [4, 25]: 100
Plant response rating, Ryegrass, Italian [4, 26]: 100
Plant response rating, Wheat, Spring [5, 19]: 70
Plant response rating, Wheat, Spring [5, 20]: 80
Plant response rating, Wheat, Spring [5, 21]: 90
Plant response rating, Wheat, Spring [5, 22]: 100
Plant response rating, Wheat, Spring [5, 23]: 0
Plant response rating, Wheat, Spring [5, 24]: 40
Plant response rating, Wheat, Spring [5, 25]: 60
Plant response rating, Wheat, Spring [5, 26]: 75
Plant response rating, Windgrass [6, 19]: 80
Plant response rating, Windgrass [6, 20]: 100
Plant response rating, Windgrass [6, 21]: 100
Plant response rating, Windgrass [6, 22]: 100
Plant response rating, Windgrass [6, 23]: 100
Plant response rating, Windgrass [6, 24]: 100
Plant response rating, Windgrass [6, 25]: 100
Plant response rating, Windgrass [6, 26]: 100
Plant response rating, Foxtail, Green [7, 19]: 95
Plant response rating, Foxtail, Green [7, 20]: 100
Plant response rating, Foxtail, Green [7, 21]: 100
Plant response rating, Foxtail, Green [7, 22]: 100
Plant response rating, Foxtail, Green [7, 23]: 20
Plant response rating, Foxtail, Green [7, 24]: 100
Plant response rating, Foxtail, Green [7, 25]: 100
Plant response rating, Foxtail, Green [7, 26]: 100
Plant response rating, Barley, Winter [8, 19]: 20
Plant response rating, Barley, Winter [8, 20]: 50
Plant response rating, Barley, Winter [8, 21]: 100
Plant response rating, Barley, Winter [8, 22]: 100
Plant response rating, Barley, Winter [8, 23]: 20
Plant response rating, Barley, Winter [8, 24]: 40
Plant response rating, Barley, Winter [8, 25]: 75
Plant response rating, Barley, Winter [8, 26]: 80
Plant response rating, Mustard, Wild [9, 19]: 0
Plant response rating, Mustard, Wild [9, 20]: 20
Plant response rating, Mustard, Wild [9, 21]: 20
Plant response rating, Mustard, Wild [9, 22]: 20
Plant response rating, Mustard, Wild [9, 23]: 0
Plant response rating, Mustard, Wild [9, 24]: 0
Plant response rating, Mustard, Wild [9, 25]: 0
Plant response rating, Mustard, Wild [9, 26]: 0
Plant response rating, Bluegrass [10, 19]: 0
Plant response rating, Bluegrass [10, 20]: 0
Plant response rating, Bluegrass [10, 21]: 25
Plant response rating, Bluegrass [10, 22]: 35
Plant response rating, Bluegrass [10, 24]: 0
Plant response rating, Wheat, Winter [11, 19]: 20
Plant response rating, Wheat, Winter [11, 20]: 80
Plant response rating, Wheat, Winter [11, 21]: 90
Plant response rating, Wheat, Winter [11, 22]: 100
Plant response rating, Wheat, Winter [11, 23]: 10
Plant response rating, Wheat, Winter [11, 24]: 50
Plant response rating, Wheat, Winter [11, 25]: 60
Plant response rating, Wheat, Winter [11, 26]: 90
Plant response rating, Blackgrass [12, 19]: 75
Plant response rating, Blackgrass [12, 20]: 100
Plant response rating, Blackgrass [12, 21]: 100
Plant response rating, Blackgrass [12, 22]: 100
Plant response rating, Blackgrass [12, 23]: 80
Plant response rating, Blackgrass [12, 24]: 100
Plant response rating, Blackgrass [12, 25]: 100
Plant response rating, Blackgrass [12, 26]: 100
Plant response rating, Canarygrass ([13]; 8 g ai/ha, scale 0 to 100 (0 no effect, 100 complete control)): 65
Plant response rating, Canarygrass ([13]; 16 g ai/ha, scale 0 to 100 (0 no effect, 100 complete control)): 90
Plant response rating, Canarygrass ([13]; 31 g ai/ha, scale 0 to 100 (0 no effect, 100 complete control)): 98
Plant response rating, Canarygrass ([13]; 62 g ai/ha, scale 0 to 100, 0 no effect, 100 complete control): 100
Plant response rating, Bromegrass, Downy [14, 19]: 40
Plant response rating, Bromegrass, Downy [14, 20]: 65
Plant response rating, Bromegrass, Downy [14, 21]: 98
Plant response rating, Bromegrass, Downy [14, 22]: 100
Plant response rating, Bromegrass, Downy [14, 23]: 30
Plant response rating, Bromegrass, Downy [14, 24]: 65
Plant response rating, Bromegrass, Downy [14, 25]: 75
Plant response rating, Bromegrass, Downy [14, 26]: 95
Plant response rating, Pigweed [15, 19]: 0
Plant response rating, Pigweed [15, 20]: 0
Plant response rating, Pigweed [15, 21]: 0
Plant response rating, Pigweed [15, 22]: 0
Plant response rating, Pigweed [15, 23]: 0
Plant response rating, Pigweed [15, 24]: 30
Plant response rating, Pigweed [15, 25]: 50
Plant response rating, Pigweed [15, 26]: 75
Plant response rating, Oat, Wild (wild oat (Avena fatua); [19]): 100
Plant response rating, Oat, Wild (wild oat (Avena fatua); [20]): 100
Plant response rating, Oat, Wild (wild oat (Avena fatua); [21]): 100
Plant response rating, Oat, Wild (wild oat (Avena fatua); [22]): 100
Plant response rating, Oat, Wild (wild oat (Avena fatua); [23]): 65
Plant response rating, Oat, Wild (wild oat (Avena fatua); [24]): 65
Plant response rating, Oat, Wild (wild oat (Avena fatua); [25]): 80
Plant response rating, Oat, Wild (wild oat (Avena fatua); [26]): 95
Plant response rating, Barley, Spring [16, 19]: 20
Plant response rating, Barley, Spring [16, 20]: 90
Plant response rating, Barley, Spring [16, 21]: 100
Plant response rating, Barley, Spring [16, 22]: 100
Plant response rating, Barley, Spring [16, 23]: 50
Plant response rating, Barley, Spring [16, 24]: 65
Plant response rating, Barley, Spring [16, 25]: 65
Plant response rating, Barley, Spring [16, 26]: 80

From patent US20100267561A1, “HERBICIDAL PYRIDAZINONE DERIVATIVES” (priority 2007, published 2010)
